Where a name gives a salt, the structure may show the parent alone.
Experiments:
mouse GPR34 = target: T1, mouse GPR34 (Mus musculus, UniProt Q9R1K6); test: TGFα shedding assay, agonistic activity on GPR34; assay type: cell-based; parameters: key to GPR34/LPS2 agonistic activity, TGFα shedding assay: an activity that is 100 folds that of control compound 1 as +++++; an activity that is 10 folds that of control compound 1 as ++++; the activity of the control compound 1 (LPS18:1) as +++; an activity that is 1/10 as ++; an activity that is 1/100 as +; an activity below that as −; conditions: for GPR34/LPS2 agonistic activity, TGFα shedding assay: HEK293 cells transfected with mouse GPR34 and AP labeled TGFα, activity relative to control compound 1 (LPS18:1) = +++
T1 construct: expressed in transfected cells; host or cells: HEK293
T1 sequence (Q9R1K6 whole entry): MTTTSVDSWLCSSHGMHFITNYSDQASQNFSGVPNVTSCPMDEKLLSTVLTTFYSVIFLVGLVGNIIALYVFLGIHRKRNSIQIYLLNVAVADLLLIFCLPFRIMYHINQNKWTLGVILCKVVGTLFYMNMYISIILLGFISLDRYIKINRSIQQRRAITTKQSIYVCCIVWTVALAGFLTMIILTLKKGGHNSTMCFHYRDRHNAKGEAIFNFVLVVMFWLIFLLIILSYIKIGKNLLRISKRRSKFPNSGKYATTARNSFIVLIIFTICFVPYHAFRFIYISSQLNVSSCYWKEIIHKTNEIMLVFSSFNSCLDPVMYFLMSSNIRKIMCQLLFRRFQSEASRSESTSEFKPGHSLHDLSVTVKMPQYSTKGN
Protocol: (§1) [Test Example 1]Assay of Agonistic Activity by TGFα Shedding Assay
(§2) HEK293 cells were suspended in the Dulbecco's modified Eagle's medium (DMEM) containing 10% fetal bovine serum (FCS) to exist in an amount of 2.0×10^5 cells/mL, and they were seeded in 60 mm dishes at 4 mL per dish. Transfection of different expression vectors was performed using LipofectAMINE 2000 (Invitrogen) after 24 hours of culture under the presence of 5% CO2. For each 60 mm dish, 1 μg of AP labeled TGFα plasmid vectors were used, and 1 μg of pCAGGS plasmid vectors of mouse GPR34, P2Y10 or GPR174 were used. The plasmid vectors were prepared by methods disclosed in Patent Documents 2 and 5. Note that the AP labeled TGFα is a protein comprising a membrane-bound pro-TGFα whose N terminal end is fused with human placental alkaline phosphatase, and the plasmid vector of the AP labeled TGFα may be produced based on the teaching of Tokumaru et al., J Cell Biol 151, 209-220 (2000). After 24 hours of transfection, the cells were peeled off using trypsin/EDTA, and they were re-suspended in a culture medium to form an amount of 2.0×10^4 cells/well to be seeded to a 96-well plate. Hanks' Balanced Salt Solution (HBSS, containing 5 mM HEPES) was used for the re-suspended solution when stimulating with the compound. After it was left still for 30 min., subject compounds of various concentrations were added and the solutions were left still for another 1 hour under the presence of 5% CO2. The 96-well plate was subjected to centrifugation (190×g, 3 min.), then 80 μl of supernatant was transferred to a different 96-well plate. A reaction buffer (40 mM Tris-HCl (pH 9.5)) containing 10 mM p-nitrophenyl phosphate (p-NPP) was added in an amount of 80 μL to the supernatant and cells. The OD405 was measured with a micro plate reader (background), then after heating at 37° C. for an hour, OD405 was re-measured. The AP activity for each well was obtained by subtracting the background from the second absorbance and plugging the difference into the following formula.
(§3) In addition, the value obtained by subtracting the AP activity (%) of the non-stimulated group was used in the vertical axis to create a graph. The graphs of the test results for Example 3 (lysoPS sn-1-deoxy sn3 C3-ph-o-OBn-m-Oph) and Example 31 (lysoPS sn-1-OMe sn3 C3-ph-o-OBn-m-Oph) are shown in FIG. 1.
(§4) The obtained activity is shown by plotting the compound concentration and AP activity (%), then representing the activity of the control compound 1 (LPS18:1) as +++, an activity that is 10 folds that of control compound 1 as ++++, an activity that is 100 folds that of control compound 1 as +++++, an activity that is 1/10 as ++, and an activity that is 1/100 as +, and an activity below that as −.

mouse P2Y10 = target: T2, mouse P2Y10 (Mus musculus, UniProt Q8BFU7); test: TGFα shedding assay, agonistic activity on P2Y10; assay type: cell-based; parameters: key: an activity that is 100 folds that of control compound 1 as +++++; an activity that is 10 folds that of control compound 1 as ++++; the activity of the control compound 1 (LPS18:1) as +++; an activity that is 1/10 as ++; an activity that is 1/100 as +; an activity below that as −; conditions: HEK293 cells transfected with mouse P2Y10 and AP labeled TGFα; activity relative to control compound 1 (LPS18:1) = +++
T2 construct: expressed in transfected cells; host or cells: HEK293
T2 sequence (Q8BFU7 whole entry): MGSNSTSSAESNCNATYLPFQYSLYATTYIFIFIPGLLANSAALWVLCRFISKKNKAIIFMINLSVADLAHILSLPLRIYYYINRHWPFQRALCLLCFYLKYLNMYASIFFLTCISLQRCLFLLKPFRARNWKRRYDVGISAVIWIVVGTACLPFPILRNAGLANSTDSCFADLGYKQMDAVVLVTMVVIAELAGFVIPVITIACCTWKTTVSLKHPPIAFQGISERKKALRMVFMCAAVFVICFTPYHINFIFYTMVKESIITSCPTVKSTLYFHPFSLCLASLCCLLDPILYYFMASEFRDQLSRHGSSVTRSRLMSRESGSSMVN
Protocol: as §1, §2, §3, §4

mouse GPR174 = target: T3, mouse GPR174 (Mus musculus, UniProt Q3U507); test: TGFα shedding assay, agonistic activity on GPR174; assay type: cell-based; parameters: key: an activity that is 100 folds that of control compound 1 as +++++; an activity that is 10 folds that of control compound 1 as ++++; the activity of the control compound 1 (LPS18:1) as +++; an activity that is 1/10 as ++; an activity that is 1/100 as +; an activity below that as −; conditions: HEK293 cells transfected with mouse GPR174 and AP labeled TGFα; activity relative to control compound 1 (LPS18:1) = +++
T3 construct: expressed in transfected cells; host or cells: HEK293
T3 sequence (Q3U507 whole entry): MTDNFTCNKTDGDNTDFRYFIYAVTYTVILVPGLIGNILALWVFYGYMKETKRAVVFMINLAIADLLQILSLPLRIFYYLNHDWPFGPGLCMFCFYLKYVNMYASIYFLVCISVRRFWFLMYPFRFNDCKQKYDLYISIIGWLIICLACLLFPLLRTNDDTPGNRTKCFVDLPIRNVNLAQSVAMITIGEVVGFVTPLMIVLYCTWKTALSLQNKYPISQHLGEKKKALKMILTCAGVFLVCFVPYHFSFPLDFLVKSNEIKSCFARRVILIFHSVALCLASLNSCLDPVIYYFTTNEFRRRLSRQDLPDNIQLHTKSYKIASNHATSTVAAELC
Protocol: as §1, §2, §3, §4

Compound	melting point [°C]	GPR34/LPS2 agonistic activity, TGFα shedding assay (mouse GPR34)	P2Y10/LPS2 agonistic activity, TGFα shedding assay (mouse P2Y10)	GPR174/LPS3 agonistic activity, TGFα shedding assay (mouse GPR174)	receptor selectivity of agonist activity among GPR34, P2Y10, GPR174 (graphs of FIG. 1) (mouse GPR34; TGFα shedding assay, HEK293 cells, AP activity (%) vs concentration)
C[C@H](COC(=O)CCc1ccccc1OCc1cccc(Oc2ccccc2)c1)OP(=O)(O)OC[C@H](N)C(=O)O (as salt: TFA) [Example 3, (2S)-2-amino-3-[hydroxyl-((1R)-1-methyl-2-{3-[2-(3-phenoxy-benzyloxy)-phenyl]-propionyloxy}-ethoxy)-phosphoryloxy]-propionic acid]	143.5 to 144.5				
N[C@@H](COP(=O)(O)O[C@@H]1CCCO[C@@H]1COC(=O)CCc1ccccc1OCc1cccc(Oc2ccccc2)c1)C(=O)O [Example 17]		++++	−	−	
N[C@@H](COP(=O)(O)OC[C@H]1OCCC[C@H]1OC(=O)CCc1ccccc1OCc1cccc(Oc2ccccc2)c1)C(=O)O [Example 18]		++++~+++++	−	−	
CCCCCCCCCCCOc1ccccc1CCC(=O)OC[C@H]1OCCC[C@@H]1OP(=O)(O)OC[C@H](N)C(=O)O [Example 21, (2S)-2-amino-3-(hydroxyl-{(2R,3S)-2-[3-(2-undecyloxy-phenyl)-propionyloxymethyl]-tetrahydro-pyran-3-yloxy}-phosphoryloxy)-propionic acid]		−~++	++	−	
N[C@@H](COP(=O)(O)O[C@H]1CCCO[C@@H]1COC(=O)CCc1ccccc1OCc1cccc(Oc2ccccc2)c1)C(=O)O [Example 22, (2S)-2-amino-3-[hydroxyl-((2R,3S)-2-{3-[2-(3-phenoxy-benzyloxy)-phenyl]-propionyloxymethyl}-tetrahydropyran-3-yloxy)-phosphoryloxy]-propionic acid]		+++	−	−	
N[C@@H](COP(=O)(O)O[C@H]1C=CCO[C@@H]1COC(=O)CCc1ccccc1OCc1cccc(Oc2ccccc2)c1)C(=O)O [Example 24, (2S)-2-amino-3-[hydroxy-((2R,3S)-2-{3-[2-(3-phenoxy-benzyloxy)-phenyl]-propionyloxymethyl}-3,6-dihydro-2H-pyran-3-yloxy)-phosphoryloxy]-propionic acid]		+++	++~+++	−	
N[C@@H](COP(=O)(O)O[C@@H]1C=CCO[C@@H]1COC(=O)CCc1ccccc1OCc1cccc(Oc2ccccc2)c1)C(=O)O [Example 26, (2S)-2-amino-3-[hydroxyl-((2R,3R)-2-{3-[2-(3-phenoxybenzyloxy)-phenyl]-propionyloxymethyl}-3,6-dihydro-2H-pyran-3-yloxy)-phosphoryloxy]-propionic acid]		+++~++++	++	−	
COC[C@H](COC(=O)CCc1ccccc1OCc1cccc(Oc2ccccc2)c1)OP(=O)(O)OC[C@H](N)C(=O)O [Example 31, (2S)-2-amino-3-[hydroxy-((1R)-1-methoxymethyl-2-{3-[2-(3-phenoxy-benzyloxy)-phenyl]-propionyloxy}-ethoxy)-phosphoryloxy]-propionic acid]		+++++	+~++	−	agonists having selectivity against GPR34

The next lines start with results.

melting point [°C]	GPR34/LPS2 agonistic activity, TGFα shedding assay (mouse GPR34)	P2Y10/LPS2 agonistic activity, TGFα shedding assay (mouse P2Y10)	GPR174/LPS3 agonistic activity, TGFα shedding assay (mouse GPR174)	Compound	receptor selectivity of agonist activity among GPR34, P2Y10, GPR174 (graphs of FIG. 1) (mouse GPR34; TGFα shedding assay, HEK293 cells, AP activity (%) vs concentration)
133.5 to 134.5				CCCCCCCC/C=C\CCCCCCCC(=O)OC[C@H](C)OP(=O)(O)OC[C@H](N)C(=O)O (as salt: TFA) [Example 2, (9Z)-Octadeca-9-enoic acid (2S)-2-[((2S)-2-amino-2-carboxy-ethoxy)-hydroxy-phosphoryloxy]-propyl ester]	
	++	−	−	CCCCCCCC/C=C\CCCCCCCC(=O)OC[C@H]1OCCC[C@H]1OP(=O)(O)OC[C@H](N)C(=O)O [Example 15, (9Z)-Octadeca-9-enoic acid (2R,3R)-3-[((2S)-2-amino-2-carboxy-ethoxy)-hydroxy-phosphoryloxy]-tetrahydropyran-2-ylmethyl ester]	
	−	++	−	CCCCCCCCCCCOc1ccccc1CCC(=O)OC[C@H]1OCC=C[C@@H]1OP(=O)(O)OC[C@H](N)C(=O)O [Example 19, (2S)-2-amino-3-(hydroxyl-{(2R,3S)-2-[3-(2-undecyloxy-phenyl)-propionyloxymethyl]-3,6-dihydro-2H-pyran-3-yloxy}-phosphoryloxy)-propionic acid]	
	+++~++++	+	−	CCCCCCCC/C=C\CCCCCCCC(=O)OC[C@H]1OCCC[C@@H]1OP(=O)(O)OC[C@H](N)C(=O)O [Example 20, (9Z)-Octadeca-9-enoic acid (2R,3S)-3-[((2S)-2-amino-2-carboxy-ethoxy)-hydroxy-phosphoryloxy]-tetrahydro-pyran-2-ylmethyl ester]	
	++	++	−	CCCCCCCC/C=C\CCCCCCCC(=O)OC[C@H]1OCC=C[C@@H]1OP(=O)(O)OC[C@H](N)C(=O)O [Example 23, (9Z)-Octadeca-9-enoic acid (2R,3S)-3-[((2S)-2-amino-2-carboxy-ethoxy)-hydroxy-phosphoryloxy]-3,6-dihydro-2H-pyran-2-ylmethyl ester]	
	+~++	+++~++++	−	CCCCCCCCCCCOc1ccccc1CCC(=O)OC[C@H]1OCC=C[C@H]1OP(=O)(O)OC[C@H](N)C(=O)O [Example 25, (2S)-2-amino-3-(hydroxy-{(2R,3R)-2-[3-(2-undecyloxy-phenyl)-propionyloxymethyl]-3,6-dihydro-2H-pyran-3-yloxy}-phosphoryloxy)-propionic acid]	

Reference: patent publication US9469665B2, “Compound having lysophosphatidylserine receptor function modulation activity” (THE UNIVERSITY OF TOKYO, priority 2013, dated 2016)
